Measurements as given in the kinase profiling compilation of Christmann-Franck et al. (2016).

Experiments:
Test in all cases: KINOMEscan competition binding
Settings in all cases: compound 10.0 µM
PIM1 (human) = PIM1 (human) (UniProt P11309)
CDK8 (human) = CDK8 (human) (UniProt P49336)
STK11 (human) = STK11 (human) (UniProt Q15831)
EIF2AK2 (human) = EIF2AK2 (human) (UniProt P19525)
CSNK1D (human) = CSNK1D (human) (UniProt P48730)
PRKD2 (human) = PRKD2 (human) (UniProt Q9BZL6)
PDGFRB (human) = PDGFRB (human) (UniProt P09619)
PIK3CD (human) = PIK3CD (human) (UniProt O00329)
MARK1 (human) = MARK1 (human) (UniProt Q9P0L2)
TEC (human) = TEC (human) (UniProt P42680)
CDK17 (human) = CDK17 (human) (UniProt Q00537)
CAMK4 (human) = CAMK4 (human) (UniProt Q16566)
CDC42BPB (human) = CDC42BPB (human) (UniProt Q9Y5S2)
MYLK (human) = MYLK (human) (UniProt Q15746)
ABL2 (human) = ABL2 (human) (UniProt P42684)
IRAK3 (human) = IRAK3 (human) (UniProt Q9Y616)
SRC (human) = SRC (human) (UniProt P12931)
MAPKAPK5 (human) = MAPKAPK5 (human) (UniProt Q8IW41)
CDK11B (human) = CDK11B (human) (UniProt P21127)
MAP3K3 (human) = MAP3K3 (human) (UniProt Q99759)
[1] = system: KIT (human), P10721 [D816V]
[2] = system: ABL1 (human), P00519 [M351T]
CDKL2 (human) = CDKL2 (human) (UniProt Q92772)
EPHB2 (human) = EPHB2 (human) (UniProt P29323)
MLTK (human) = MLTK (human) (UniProt Q9NYL2)
MAP2K3 (human) = MAP2K3 (human) (UniProt P46734)
NEK9 (human) = NEK9 (human) (UniProt Q8TD19)
MAP2K6 (human) = MAP2K6 (human) (UniProt P52564)
PAK4 (human) = PAK4 (human) (UniProt O96013)
CAMKK1 (human) = CAMKK1 (human) (UniProt Q8N5S9)
RPS6KA1 KD1 (human) = RPS6KA1 KD1 (human) (UniProt Q15418)
RET (human) = RET (human) (UniProt P07949)
FYN (human) = FYN (human) (UniProt P06241)
MYO3B (human) = MYO3B (human) (UniProt Q8WXR4)
[3] = target: TYK2 JH2 pseudokinase (human) (UniProt P29597)
CDK18 (human) = CDK18 (human) (UniProt Q07002)
BMPR1A (human) = BMPR1A (human) (UniProt P36894)
BMPR2 (human) = BMPR2 (human) (UniProt Q13873)
PRKACA (human) = PRKACA (human) (UniProt P17612)
STK33 (human) = STK33 (human) (UniProt Q9BYT3)

Measured: kinase still bound, per cent of control

Chain of FYN (human) (P06241 whole entry, looked up): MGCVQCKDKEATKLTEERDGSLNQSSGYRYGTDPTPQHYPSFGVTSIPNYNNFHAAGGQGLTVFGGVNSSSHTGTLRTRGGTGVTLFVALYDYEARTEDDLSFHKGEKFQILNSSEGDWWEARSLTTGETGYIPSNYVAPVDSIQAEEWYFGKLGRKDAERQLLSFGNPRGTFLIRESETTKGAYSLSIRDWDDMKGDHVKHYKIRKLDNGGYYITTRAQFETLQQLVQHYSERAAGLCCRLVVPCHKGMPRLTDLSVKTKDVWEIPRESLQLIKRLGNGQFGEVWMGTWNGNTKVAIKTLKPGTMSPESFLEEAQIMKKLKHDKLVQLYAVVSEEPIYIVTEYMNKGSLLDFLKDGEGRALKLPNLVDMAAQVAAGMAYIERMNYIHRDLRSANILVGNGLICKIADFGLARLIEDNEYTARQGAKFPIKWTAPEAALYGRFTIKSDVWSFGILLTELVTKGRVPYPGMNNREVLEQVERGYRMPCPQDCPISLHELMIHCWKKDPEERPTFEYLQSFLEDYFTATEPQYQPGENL
Chain of IRAK3 (human) (Q9Y616 whole entry, looked up): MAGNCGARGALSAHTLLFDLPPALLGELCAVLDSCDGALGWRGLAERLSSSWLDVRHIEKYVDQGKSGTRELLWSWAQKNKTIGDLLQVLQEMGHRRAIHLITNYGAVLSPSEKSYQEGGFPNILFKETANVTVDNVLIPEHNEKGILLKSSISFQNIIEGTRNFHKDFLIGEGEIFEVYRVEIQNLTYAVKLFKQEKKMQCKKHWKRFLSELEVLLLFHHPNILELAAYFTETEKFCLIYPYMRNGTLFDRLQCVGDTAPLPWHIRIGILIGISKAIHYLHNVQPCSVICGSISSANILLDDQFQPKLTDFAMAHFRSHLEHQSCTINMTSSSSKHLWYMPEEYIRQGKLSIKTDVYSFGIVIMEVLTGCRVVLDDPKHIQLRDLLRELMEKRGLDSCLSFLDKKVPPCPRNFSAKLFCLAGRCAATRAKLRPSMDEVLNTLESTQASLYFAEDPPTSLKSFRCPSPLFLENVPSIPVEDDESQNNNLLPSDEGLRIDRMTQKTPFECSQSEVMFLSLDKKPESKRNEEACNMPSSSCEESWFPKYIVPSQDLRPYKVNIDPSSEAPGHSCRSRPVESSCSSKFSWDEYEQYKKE
Chain of BMPR1A (human) (P36894 whole entry, looked up): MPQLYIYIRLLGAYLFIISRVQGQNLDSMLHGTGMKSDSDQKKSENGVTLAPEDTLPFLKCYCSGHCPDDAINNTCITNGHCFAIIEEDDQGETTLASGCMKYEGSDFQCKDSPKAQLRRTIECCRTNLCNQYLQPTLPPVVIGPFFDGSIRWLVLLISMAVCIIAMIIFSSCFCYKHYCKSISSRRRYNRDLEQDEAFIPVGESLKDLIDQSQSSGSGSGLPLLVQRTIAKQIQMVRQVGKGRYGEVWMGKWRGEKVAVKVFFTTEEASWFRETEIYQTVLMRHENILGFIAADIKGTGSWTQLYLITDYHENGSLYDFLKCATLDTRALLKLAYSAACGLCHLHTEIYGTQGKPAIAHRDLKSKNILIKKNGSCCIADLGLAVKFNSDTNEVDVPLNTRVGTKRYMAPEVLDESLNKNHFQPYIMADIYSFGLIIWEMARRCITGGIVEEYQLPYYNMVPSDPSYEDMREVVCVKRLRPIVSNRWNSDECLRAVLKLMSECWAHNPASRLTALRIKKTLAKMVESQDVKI
Chain of MARK1 (human) (Q9P0L2 whole entry, looked up): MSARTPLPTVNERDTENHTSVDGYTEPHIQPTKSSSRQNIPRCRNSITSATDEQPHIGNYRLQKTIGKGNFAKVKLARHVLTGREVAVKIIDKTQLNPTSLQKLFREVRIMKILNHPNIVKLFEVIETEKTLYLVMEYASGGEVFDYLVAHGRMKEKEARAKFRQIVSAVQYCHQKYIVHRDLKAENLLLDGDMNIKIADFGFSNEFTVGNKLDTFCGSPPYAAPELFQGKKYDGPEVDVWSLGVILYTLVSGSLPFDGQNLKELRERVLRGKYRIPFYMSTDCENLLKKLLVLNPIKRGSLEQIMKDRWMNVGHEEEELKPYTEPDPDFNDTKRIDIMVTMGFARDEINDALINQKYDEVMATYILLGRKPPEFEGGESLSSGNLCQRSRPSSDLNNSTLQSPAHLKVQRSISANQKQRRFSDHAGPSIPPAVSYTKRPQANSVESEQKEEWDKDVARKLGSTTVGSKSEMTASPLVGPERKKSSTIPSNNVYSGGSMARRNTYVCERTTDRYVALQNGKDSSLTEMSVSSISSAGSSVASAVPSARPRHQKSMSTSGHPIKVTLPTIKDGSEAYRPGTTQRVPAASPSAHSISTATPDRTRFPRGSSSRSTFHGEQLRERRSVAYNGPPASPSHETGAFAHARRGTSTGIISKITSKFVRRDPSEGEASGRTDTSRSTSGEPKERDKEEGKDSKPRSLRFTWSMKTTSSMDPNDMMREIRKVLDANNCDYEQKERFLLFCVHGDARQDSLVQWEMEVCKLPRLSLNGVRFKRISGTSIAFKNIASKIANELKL
Chain of MAPKAPK5 (human) (Q8IW41 whole entry, looked up): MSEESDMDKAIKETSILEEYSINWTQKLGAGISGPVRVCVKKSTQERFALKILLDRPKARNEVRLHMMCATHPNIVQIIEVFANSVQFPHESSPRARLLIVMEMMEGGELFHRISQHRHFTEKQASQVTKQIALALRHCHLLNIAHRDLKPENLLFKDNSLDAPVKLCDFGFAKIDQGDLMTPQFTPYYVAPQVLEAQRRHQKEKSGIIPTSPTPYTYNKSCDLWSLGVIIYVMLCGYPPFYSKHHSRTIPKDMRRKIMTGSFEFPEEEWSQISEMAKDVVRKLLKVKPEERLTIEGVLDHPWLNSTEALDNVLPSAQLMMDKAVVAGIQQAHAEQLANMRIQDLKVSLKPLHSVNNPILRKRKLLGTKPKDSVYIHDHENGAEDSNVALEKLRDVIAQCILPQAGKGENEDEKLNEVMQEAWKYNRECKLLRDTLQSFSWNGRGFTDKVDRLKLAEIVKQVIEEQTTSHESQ
Chain of PAK4 (human) (O96013 whole entry, looked up): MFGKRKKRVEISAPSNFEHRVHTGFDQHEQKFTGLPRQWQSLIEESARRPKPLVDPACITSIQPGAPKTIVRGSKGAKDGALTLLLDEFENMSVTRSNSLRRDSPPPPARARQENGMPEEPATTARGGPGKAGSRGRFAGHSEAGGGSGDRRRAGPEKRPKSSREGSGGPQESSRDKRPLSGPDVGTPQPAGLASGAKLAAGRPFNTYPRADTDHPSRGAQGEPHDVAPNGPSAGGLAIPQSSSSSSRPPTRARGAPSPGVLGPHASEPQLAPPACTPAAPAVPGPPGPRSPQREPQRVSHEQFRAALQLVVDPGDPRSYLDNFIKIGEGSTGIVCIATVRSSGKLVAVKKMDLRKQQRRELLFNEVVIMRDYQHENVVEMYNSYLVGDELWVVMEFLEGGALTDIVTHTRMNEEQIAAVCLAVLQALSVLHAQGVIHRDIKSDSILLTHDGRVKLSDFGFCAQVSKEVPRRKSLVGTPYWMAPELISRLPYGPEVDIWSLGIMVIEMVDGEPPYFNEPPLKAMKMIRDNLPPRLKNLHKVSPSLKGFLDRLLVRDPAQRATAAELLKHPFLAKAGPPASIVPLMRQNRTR
Chain of MAP3K3 (human) (Q99759 whole entry, looked up): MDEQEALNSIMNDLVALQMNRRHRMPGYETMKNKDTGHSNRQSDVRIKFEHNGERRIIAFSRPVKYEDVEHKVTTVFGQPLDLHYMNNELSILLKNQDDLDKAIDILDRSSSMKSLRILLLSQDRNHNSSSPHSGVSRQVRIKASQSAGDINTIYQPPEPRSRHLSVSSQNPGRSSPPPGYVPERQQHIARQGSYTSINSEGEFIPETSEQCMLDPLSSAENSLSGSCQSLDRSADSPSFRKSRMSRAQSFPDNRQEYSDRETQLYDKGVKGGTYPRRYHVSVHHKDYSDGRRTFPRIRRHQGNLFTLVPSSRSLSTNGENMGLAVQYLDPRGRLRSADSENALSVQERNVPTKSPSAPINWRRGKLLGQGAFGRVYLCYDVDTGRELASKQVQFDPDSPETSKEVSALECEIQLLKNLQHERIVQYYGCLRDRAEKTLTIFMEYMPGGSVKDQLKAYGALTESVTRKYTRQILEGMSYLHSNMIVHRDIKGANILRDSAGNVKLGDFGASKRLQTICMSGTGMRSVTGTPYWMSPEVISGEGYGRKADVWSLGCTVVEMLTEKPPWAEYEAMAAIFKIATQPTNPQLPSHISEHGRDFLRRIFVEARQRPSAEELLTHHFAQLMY
Chain of PIM1 (human) (P11309 whole entry, looked up): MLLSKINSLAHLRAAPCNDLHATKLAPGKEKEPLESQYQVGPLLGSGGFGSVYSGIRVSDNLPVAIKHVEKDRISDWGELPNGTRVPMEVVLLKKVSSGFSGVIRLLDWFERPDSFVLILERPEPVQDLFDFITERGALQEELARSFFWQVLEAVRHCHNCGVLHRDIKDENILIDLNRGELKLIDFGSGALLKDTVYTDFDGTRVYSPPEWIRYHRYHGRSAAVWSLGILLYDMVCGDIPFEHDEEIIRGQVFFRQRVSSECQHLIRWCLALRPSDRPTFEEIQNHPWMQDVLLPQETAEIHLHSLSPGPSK
Chain of CSNK1D (human) (P48730 whole entry, looked up): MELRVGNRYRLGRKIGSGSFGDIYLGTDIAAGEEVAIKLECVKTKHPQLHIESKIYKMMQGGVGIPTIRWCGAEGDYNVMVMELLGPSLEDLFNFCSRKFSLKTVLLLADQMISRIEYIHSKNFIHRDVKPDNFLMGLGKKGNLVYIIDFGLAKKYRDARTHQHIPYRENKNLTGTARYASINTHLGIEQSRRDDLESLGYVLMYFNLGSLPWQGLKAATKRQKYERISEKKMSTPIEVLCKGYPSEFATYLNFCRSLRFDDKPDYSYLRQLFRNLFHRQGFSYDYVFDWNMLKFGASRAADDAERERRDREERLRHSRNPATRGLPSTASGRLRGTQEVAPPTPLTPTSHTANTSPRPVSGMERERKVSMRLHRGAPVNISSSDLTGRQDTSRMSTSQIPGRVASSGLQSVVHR

COc1cc(C(=O)NC2CCN(C)CC2)ccc1Nc1ncc2c(n1)N(C1CCCC1)CCC(=O)N2C(C)C
32%: STK33 (human)
100%: PIM1 (human) | CDK8 (human) | STK11 (human) | EIF2AK2 (human) | CSNK1D (human) | PRKD2 (human) | PDGFRB (human) | PIK3CD (human) | MARK1 (human) | TEC (human) | CDK17 (human) | CAMK4 (human) | CDC42BPB (human) | MYLK (human) | ABL2 (human) | IRAK3 (human) | SRC (human) | MAPKAPK5 (human) | CDK11B (human) | MAP3K3 (human) | [1] | [2] | CDKL2 (human) | EPHB2 (human) | MLTK (human) | MAP2K3 (human) | NEK9 (human) | MAP2K6 (human) | PAK4 (human) | CAMKK1 (human) | RPS6KA1 KD1 (human) | RET (human) | FYN (human) | MYO3B (human) | [3] | CDK18 (human) | BMPR1A (human) | BMPR2 (human) | PRKACA (human)
